Experimental data as given in US5001222A, “Des-17-histidine-calcitonin” (Rhone-Poulenc Rorer Pharmaceuticals Inc., priority 1988, dated 1991).

Legend:
[1] = literature value, Experientia 32(9), 1104-1106 (1976); cited from earlier work
[2] = tested on: serum calcium concentration; assay: Biological assay of calcitonin analogs in vivo: reduction of serum calcium vs salmon calcitonin standard, 2x2 parallel line assay; parameters: species or system Rats; conditions: standard salmon calcitonin used in the assay
Protocol: Biological Assay of Calcitonin Analogs in Vivo
The biological potency of des-17-histidine-salmon calcitonin was determined by comparing the reduction of serum calcium concentration which followed administration by graded doses of des-His^17 -SCT and synthetic salmon calcitonin standard. Rats were divided into four groups of seven animals, and each group was assigned at random to a dose of standard or test solution. Low and high doses were chosen from the linear portion of the dose-response curve. For the salmon calcitonin standard, the values were 0.7 and 2.1 ng. peptide/100 g. body weight (BW). This dose approximates 3 and 9 MU/100 g. BW. Peptides were given by subcutaneous injection (0.2 ml/100 g. BW) and blood was withdrawn 1 hour later for serum calcium determination. Sera are processed and analyzed within two hours of collection. […]. Results were analyzed by a 2×2 parallel line assay [Gaddum, J. H., J. Pharm. Pharmacol., 6, 345 (1953)]. The standard salmon calcitonin used was independently determined to contain greater than 4,000 IU/mg. des-His^17 -SCT assayed at 4250 IU/mg.

Row | Compound | hypocalcemic potency [1] | potency content of the standard, independently determined [2]
1 | (1,7-alpha-L-amino-suberic acid) eel calcitonin | about 3400 IU/mg. | 
2 | eel calcitonin [synthetic eel calcitonin] | around 4300 IU/mg. | 
3 | CC(C)C[C@H](NC(=O)[C@H](CCCCN)NC(=O)CNC(=O)[C@H](CC(C)C)NC(=O)[C@@H](NC(=O)[C@@H]1CSSC[C@H](N)C(=O)N[C@@H](CO)C(=O)N[C@@H](CC(N)=O)C(=O)N[C@@H](CC(C)C)C(=O)N[C@@H](CO)C(=O)N[C@@H]([C@@H](C)O)C(=O)N1)C(C)C)C(=O)N[C@@H](CO)C(=O)N[C@@H](CCC(N)=O)C(=O)N[C@@H](CCC(=O)O)C(=O)N[C@@H](CC(C)C)C(=O)N[C@@H](Cc1c[nH]cn1)C(=O)N[C@@H](CCCCN)C(=O)N[C@@H](CC(C)C)C(=O)N[C@@H](CCC(N)=O)C(=O)N[C@H](C(=O)N[C@@H](Cc1ccc(O)cc1)C(=O)N1CCC[C@H]1C(=O)N[C@@H](CCCNC(=N)N)C(=O)N[C@H](C(=O)N[C@@H](CC(N)=O)C(=O)N[C@H](C(=O)NCC(=O)N[C@@H](CO)C(=O)NCC(=O)N[C@H](C(=O)N1CCC[C@H]1C(N)=O)[C@@H](C)O)[C@@H](C)O)[C@@H](C)O)[C@@H](C)O [standard salmon calcitonin, Salmon calcitonin] |  | greater than 4,000 IU/mg
